Measurements published in ChEMBL document CHEMBL4507287, “Data for DCP probe MRL-650” (2021).

Tests used:
[1] = target: Serine/threonine-protein kinase PAK 5 (Homo sapiens) (UniProt Q9P286); details: Compound concentration 1000.0 nM
[2] = target: Mitogen-activated protein kinase kinase kinase 7 (Homo sapiens) (UniProt O43318); details: Compound concentration 1000.0 nM
[3] = target: Serine/threonine-protein kinase Sgk2 (Homo sapiens) (UniProt Q9HBY8); details: Compound concentration 1000.0 nM
[4] = target: Dual specificity mitogen-activated protein kinase kinase 5 (Homo sapiens) (UniProt Q13163); details: Compound concentration 1000.0 nM
[5] = target: Serine/threonine-protein kinase Chk2 (Homo sapiens) (UniProt O96017); details: Compound concentration 1000.0 nM
[6] = target: Sigma non-opioid intracellular receptor 1 (Homo sapiens, UniProt Q99720); details: Compound concentration 10.0 uM
[7] = target: Muscarinic acetylcholine receptor M4 (Homo sapiens) (UniProt P08173); details: Compound concentration 10.0 uM
[8] = test system: Epidermal growth factor receptor (Homo sapiens), P00533 [UNDEFINED MUTATION]; details: Compound concentration 1000.0 nM
[9] = target: Dual specificity tyrosine-phosphorylation-regulated kinase 1A (Homo sapiens) (UniProt Q13627); details: Compound concentration 1000.0 nM
[10] = target: Homeodomain-interacting protein kinase 4 (Homo sapiens) (UniProt Q8NE63); details: Compound concentration 1000.0 nM
[11] = target: Serine/threonine-protein kinase 32B (Homo sapiens) (UniProt Q9NY57); details: Compound concentration 1000.0 nM
[12] = target: Cyclin-dependent kinase 8 (Homo sapiens) (UniProt P49336); details: Compound concentration 1000.0 nM
Cannabinoid receptor 2 = Cannabinoid receptor 2 (Homo sapiens, UniProt P34972); assay: Radioligand Binding Assay (CNR2)
[13] = target: 5-hydroxytryptamine receptor 1B (Homo sapiens) (UniProt P28222); details: Compound concentration 10.0 uM
[14] = target: Testis-specific serine/threonine-protein kinase 3 (Homo sapiens) (UniProt Q96PN8); details: Compound concentration 1000.0 nM
[15] = target: Ribosomal protein S6 kinase alpha-1 (Homo sapiens) (UniProt Q15418); details: Compound concentration 1000.0 nM
[16] = target: Serine/threonine-protein kinase WNK4 (Homo sapiens) (UniProt Q96J92); details: Compound concentration 1000.0 nM
[17] = target: Serine/threonine-protein kinase MAK (Homo sapiens) (UniProt P20794); details: Compound concentration 1000.0 nM
[18] = target: Alpha-1D adrenergic receptor (Homo sapiens) (UniProt P25100); details: Compound concentration 10.0 uM
[19] = target: Ephrin type-A receptor 8 (Homo sapiens) (UniProt P29322); details: Compound concentration 1000.0 nM
[20] = test system: Tyrosine-protein kinase ABL1 (Homo sapiens), P00519 [Q252H]; details: Compound concentration 1000.0 nM
[21] = target: RAC-beta serine/threonine-protein kinase (Homo sapiens) (UniProt P31751); details: Compound concentration 1000.0 nM
[22] = target: Mitogen-activated protein kinase 4 (Homo sapiens) (UniProt P31152); details: Compound concentration 1000.0 nM
[23] = test system: Epidermal growth factor receptor (Homo sapiens), P00533 [UNDEFINED MUTATION]; details: Compound concentration 1000.0 nM; remark: listed apart in the source
[24] = target: Serine/threonine-protein kinase SIK3 (Homo sapiens) (UniProt Q9Y2K2); details: Compound concentration 1000.0 nM
[25] = target: Cyclin-dependent kinase 5 (Homo sapiens) (UniProt Q00535); details: Compound concentration 1000.0 nM
[26] = target: 5-hydroxytryptamine receptor 3A (Homo sapiens) (UniProt P46098); details: Compound concentration 10.0 uM
[27] = target: Protein kinase C theta type (Homo sapiens) (UniProt Q04759); details: Compound concentration 1000.0 nM
[28] = test system: Epidermal growth factor receptor (Homo sapiens), P00533 [G719S]; details: Compound concentration 1000.0 nM
[29] = target: Serine/threonine-protein kinase BRSK2 (Homo sapiens) (UniProt Q8IWQ3); details: Compound concentration 1000.0 nM
[30] = target: Ephrin type-A receptor 2 (Homo sapiens) (UniProt P29317); details: Compound concentration 1000.0 nM
[31] = target: Serine/threonine-protein kinase 36 (Homo sapiens) (UniProt Q9NRP7); details: Compound concentration 1000.0 nM
[32] = target: Serine/threonine-protein kinase RIO3 (Homo sapiens) (UniProt O14730); details: Compound concentration 1000.0 nM
[33] = test system: Epidermal growth factor receptor (Homo sapiens), P00533 [L861Q]; details: Compound concentration 1000.0 nM
[34] = target: Mitogen-activated protein kinase 3 (Homo sapiens) (UniProt P27361); details: Compound concentration 1000.0 nM
[35] = target: Fibroblast growth factor receptor 4 (Homo sapiens) (UniProt P22455); details: Compound concentration 1000.0 nM
[36] = target: Cyclin-dependent kinase 11B (Homo sapiens) (UniProt P21127); details: Compound concentration 1000.0 nM
[37] = target: Ribosomal protein S6 kinase alpha-1 (Homo sapiens) (UniProt Q15418); details: Compound concentration 1000.0 nM; remark: listed apart in the source
[38] = target: Tyrosine-protein kinase JAK2 (Homo sapiens) (UniProt O60674); details: Compound concentration 1000.0 nM
[39] = target: Cyclin-dependent kinase 4 (Homo sapiens) (UniProt P11802); details: Compound concentration 1000.0 nM
[40] = target: Tyrosine-protein kinase Blk (Homo sapiens) (UniProt P51451); details: Compound concentration 1000.0 nM
[41] = target: Fibroblast growth factor receptor 2 (Homo sapiens) (UniProt P21802); details: Compound concentration 1000.0 nM
[42] = target: Mitogen-activated protein kinase 6 (Homo sapiens) (UniProt Q16659); details: Compound concentration 1000.0 nM
[43] = target: Dual specificity mitogen-activated protein kinase kinase 7 (Homo sapiens) (UniProt O14733); details: Compound concentration 1000.0 nM
[44] = target: Tyrosine-protein kinase TXK (Homo sapiens) (UniProt P42681); details: Compound concentration 1000.0 nM
[45] = target: Serine/threonine-protein kinase Nek7 (Homo sapiens) (UniProt Q8TDX7); details: Compound concentration 1000.0 nM

Chain of Ribosomal protein S6 kinase alpha-1 (Homo sapiens) (Q15418 whole entry): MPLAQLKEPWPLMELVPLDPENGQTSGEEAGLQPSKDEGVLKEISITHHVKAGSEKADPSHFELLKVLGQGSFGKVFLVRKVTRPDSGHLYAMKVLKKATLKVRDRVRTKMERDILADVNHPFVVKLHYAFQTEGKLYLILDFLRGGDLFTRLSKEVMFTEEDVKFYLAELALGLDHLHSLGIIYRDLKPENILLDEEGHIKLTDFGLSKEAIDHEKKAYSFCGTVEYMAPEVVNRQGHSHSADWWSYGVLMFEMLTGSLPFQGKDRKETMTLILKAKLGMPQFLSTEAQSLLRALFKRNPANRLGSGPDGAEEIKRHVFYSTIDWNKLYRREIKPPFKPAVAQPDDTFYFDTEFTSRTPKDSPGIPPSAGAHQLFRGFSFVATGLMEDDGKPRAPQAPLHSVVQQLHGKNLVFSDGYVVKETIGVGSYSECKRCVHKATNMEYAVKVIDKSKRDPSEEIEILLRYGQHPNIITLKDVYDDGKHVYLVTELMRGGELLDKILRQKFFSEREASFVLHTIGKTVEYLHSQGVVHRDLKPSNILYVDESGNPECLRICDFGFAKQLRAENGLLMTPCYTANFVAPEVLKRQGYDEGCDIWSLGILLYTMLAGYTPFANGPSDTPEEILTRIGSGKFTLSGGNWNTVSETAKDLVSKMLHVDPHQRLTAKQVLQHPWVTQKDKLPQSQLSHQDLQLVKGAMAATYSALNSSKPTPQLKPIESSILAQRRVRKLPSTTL
Chain of Serine/threonine-protein kinase BRSK2 (Homo sapiens) (Q8IWQ3 whole entry): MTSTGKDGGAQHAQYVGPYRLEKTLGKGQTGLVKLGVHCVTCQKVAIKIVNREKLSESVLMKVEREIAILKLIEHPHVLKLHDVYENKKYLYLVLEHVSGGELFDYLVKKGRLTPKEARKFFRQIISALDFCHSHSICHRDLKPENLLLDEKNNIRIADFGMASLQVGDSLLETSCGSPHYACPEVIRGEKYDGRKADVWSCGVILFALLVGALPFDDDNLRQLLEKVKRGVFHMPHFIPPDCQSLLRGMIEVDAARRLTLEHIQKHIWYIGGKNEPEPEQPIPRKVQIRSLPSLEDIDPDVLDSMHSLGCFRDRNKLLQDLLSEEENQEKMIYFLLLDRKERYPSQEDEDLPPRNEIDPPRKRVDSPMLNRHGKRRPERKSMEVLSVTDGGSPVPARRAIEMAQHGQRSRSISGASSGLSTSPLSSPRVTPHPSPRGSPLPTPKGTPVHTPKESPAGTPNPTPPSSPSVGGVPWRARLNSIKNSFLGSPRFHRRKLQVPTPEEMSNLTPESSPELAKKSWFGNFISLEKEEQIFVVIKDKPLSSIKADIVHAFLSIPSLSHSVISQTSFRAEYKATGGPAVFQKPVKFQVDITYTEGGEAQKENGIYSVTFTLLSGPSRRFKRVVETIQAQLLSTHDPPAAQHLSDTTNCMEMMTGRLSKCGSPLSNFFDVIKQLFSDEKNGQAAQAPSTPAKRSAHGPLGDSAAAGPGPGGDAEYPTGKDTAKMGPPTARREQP
Chain of Serine/threonine-protein kinase SIK3 (Homo sapiens) (Q9Y2K2 whole entry, looked up): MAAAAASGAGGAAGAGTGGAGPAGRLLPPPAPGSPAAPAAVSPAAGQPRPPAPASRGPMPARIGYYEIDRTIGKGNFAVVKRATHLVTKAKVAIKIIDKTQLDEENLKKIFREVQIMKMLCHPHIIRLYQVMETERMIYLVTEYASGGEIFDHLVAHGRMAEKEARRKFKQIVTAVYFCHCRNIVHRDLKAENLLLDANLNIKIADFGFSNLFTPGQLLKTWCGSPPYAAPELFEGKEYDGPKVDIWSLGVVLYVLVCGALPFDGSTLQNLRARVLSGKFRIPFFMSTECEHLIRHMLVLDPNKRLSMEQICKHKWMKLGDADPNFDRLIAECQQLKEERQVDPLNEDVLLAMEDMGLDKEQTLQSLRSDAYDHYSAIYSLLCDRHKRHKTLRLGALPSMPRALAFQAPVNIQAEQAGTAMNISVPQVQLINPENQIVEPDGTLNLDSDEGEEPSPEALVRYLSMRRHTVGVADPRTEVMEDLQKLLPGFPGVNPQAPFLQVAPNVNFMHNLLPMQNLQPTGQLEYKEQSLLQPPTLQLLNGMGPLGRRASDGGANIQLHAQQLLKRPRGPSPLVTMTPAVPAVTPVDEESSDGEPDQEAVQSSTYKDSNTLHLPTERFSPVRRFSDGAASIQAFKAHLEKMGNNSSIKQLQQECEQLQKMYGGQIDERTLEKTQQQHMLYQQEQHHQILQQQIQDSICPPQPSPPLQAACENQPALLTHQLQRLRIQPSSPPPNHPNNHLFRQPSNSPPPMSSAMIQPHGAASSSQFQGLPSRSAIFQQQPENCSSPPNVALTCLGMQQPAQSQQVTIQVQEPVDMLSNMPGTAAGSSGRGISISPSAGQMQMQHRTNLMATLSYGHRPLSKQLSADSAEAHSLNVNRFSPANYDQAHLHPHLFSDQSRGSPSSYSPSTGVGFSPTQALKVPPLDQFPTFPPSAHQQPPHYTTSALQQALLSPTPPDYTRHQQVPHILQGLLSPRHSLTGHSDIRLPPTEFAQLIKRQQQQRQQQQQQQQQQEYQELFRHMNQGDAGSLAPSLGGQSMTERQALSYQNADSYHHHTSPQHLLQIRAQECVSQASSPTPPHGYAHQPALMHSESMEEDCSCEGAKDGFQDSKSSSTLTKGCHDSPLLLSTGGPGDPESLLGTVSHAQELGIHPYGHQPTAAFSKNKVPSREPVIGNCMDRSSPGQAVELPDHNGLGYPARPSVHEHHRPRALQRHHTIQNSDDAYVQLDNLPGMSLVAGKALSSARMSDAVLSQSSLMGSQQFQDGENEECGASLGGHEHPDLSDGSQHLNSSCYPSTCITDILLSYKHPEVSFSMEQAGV
Chain of Fibroblast growth factor receptor 2 (Homo sapiens) (P21802 22-821 limits assumed): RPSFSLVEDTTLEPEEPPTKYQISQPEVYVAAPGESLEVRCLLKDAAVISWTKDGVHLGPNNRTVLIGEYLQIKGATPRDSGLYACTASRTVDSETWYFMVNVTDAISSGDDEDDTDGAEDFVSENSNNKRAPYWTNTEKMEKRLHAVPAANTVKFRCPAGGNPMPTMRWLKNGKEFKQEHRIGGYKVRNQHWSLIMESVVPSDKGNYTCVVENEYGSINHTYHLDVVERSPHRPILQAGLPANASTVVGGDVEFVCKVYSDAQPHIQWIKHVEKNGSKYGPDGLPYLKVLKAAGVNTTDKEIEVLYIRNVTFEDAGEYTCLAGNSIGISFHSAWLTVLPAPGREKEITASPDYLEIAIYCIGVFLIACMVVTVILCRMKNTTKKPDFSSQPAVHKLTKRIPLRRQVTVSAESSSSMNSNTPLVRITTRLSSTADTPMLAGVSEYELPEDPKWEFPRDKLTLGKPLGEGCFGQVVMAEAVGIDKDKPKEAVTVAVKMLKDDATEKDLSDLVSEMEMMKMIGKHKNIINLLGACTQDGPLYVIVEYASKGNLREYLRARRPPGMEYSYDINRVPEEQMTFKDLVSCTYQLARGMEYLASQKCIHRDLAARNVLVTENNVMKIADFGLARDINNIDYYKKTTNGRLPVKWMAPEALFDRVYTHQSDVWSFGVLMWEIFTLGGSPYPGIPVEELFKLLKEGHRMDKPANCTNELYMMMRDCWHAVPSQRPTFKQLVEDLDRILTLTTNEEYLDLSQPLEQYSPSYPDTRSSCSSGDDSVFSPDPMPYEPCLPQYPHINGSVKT
Chain of Serine/threonine-protein kinase PAK 5 (Homo sapiens) (Q9P286 whole entry, looked up): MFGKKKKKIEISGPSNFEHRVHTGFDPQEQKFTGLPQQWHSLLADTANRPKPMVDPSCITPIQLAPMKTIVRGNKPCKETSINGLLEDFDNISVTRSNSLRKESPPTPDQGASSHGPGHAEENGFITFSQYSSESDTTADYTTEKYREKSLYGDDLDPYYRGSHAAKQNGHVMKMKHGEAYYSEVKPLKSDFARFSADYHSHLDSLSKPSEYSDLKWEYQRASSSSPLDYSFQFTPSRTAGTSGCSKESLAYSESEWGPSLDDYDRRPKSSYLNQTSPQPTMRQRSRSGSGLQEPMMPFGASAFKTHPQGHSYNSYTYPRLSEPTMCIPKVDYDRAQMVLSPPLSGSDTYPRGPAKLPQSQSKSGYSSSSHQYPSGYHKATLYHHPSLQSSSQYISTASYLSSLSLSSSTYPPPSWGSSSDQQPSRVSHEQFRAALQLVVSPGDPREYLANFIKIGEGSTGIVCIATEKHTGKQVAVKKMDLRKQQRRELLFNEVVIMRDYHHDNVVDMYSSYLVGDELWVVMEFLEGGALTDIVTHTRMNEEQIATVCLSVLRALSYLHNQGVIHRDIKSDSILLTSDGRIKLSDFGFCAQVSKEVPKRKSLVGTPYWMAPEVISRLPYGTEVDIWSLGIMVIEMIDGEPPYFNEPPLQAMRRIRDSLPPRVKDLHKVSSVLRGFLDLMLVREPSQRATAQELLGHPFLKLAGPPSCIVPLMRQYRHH
Chain of Sigma non-opioid intracellular receptor 1 (Q99720 whole entry): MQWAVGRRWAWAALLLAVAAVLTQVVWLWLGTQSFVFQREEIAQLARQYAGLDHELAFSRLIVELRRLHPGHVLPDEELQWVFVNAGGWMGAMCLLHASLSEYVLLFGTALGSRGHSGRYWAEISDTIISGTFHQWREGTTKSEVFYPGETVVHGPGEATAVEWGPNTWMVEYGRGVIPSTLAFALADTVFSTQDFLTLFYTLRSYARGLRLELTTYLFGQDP
Chain of Serine/threonine-protein kinase 32B (Homo sapiens) (Q9NY57 whole entry): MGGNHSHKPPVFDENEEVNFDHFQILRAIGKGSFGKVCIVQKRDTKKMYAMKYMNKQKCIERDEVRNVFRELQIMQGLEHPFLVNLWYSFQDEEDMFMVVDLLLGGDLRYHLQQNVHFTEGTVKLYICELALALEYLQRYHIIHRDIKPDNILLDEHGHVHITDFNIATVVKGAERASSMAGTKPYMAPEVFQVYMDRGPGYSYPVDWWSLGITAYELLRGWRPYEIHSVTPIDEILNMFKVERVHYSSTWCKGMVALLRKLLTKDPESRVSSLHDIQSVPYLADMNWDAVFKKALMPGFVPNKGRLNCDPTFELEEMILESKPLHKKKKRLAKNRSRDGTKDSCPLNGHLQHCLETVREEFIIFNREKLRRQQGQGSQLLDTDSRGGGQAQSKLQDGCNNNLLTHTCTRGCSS

## CC(=O)c1c(NS(C)(=O)=O)c2cc(-c3ccc(Cl)cc3)c(-c3ccc(Cl)cc3Cl)nc2n(C)c1=O [MRL-CB1-NC]
[1]
  residual activity: 98%
[2]
  residual activity: 83%
[3]
  residual activity: 92%
[4]
  residual activity: 80%
[5]
  residual activity: 100%
[6]
  inhibition: -7.46%
[7]
  inhibition: 16.2%
[8]
  residual activity: 100%
[9]
  residual activity: 77%
[10]
  residual activity: 93%
[11]
  residual activity: 89%
[12]
  residual activity: 83%
Cannabinoid receptor 2
  Inverse agonism: 38.3%
[13]
  inhibition: -2.36%
[14]
  residual activity: 100%
[15]
  residual activity: 88%
[16]
  residual activity: 96%
[17]
  residual activity: 93%
[18]
  inhibition: 15.9%
[19]
  residual activity: 97%
[20]
  residual activity: 100%
[21]
  residual activity: 100%
[22]
  residual activity: 100%
[23]
  residual activity: 100%
[24]
  residual activity: 100%
[25]
  residual activity: 100%
[26]
  inhibition: 3.2%
[27]
  residual activity: 100%
[28]
  residual activity: 100%
[29]
  residual activity: 90%
[30]
  residual activity: 100%
[31]
  residual activity: 100%
[32]
  residual activity: 96%
[33]
  residual activity: 100%
[34]
  residual activity: 100%
[35]
  residual activity: 100%
[36]
  residual activity: 84%
[37]
  residual activity: 93%
[38]
  residual activity: 97%
[39]
  residual activity: 100%
[40]
  residual activity: 100%
[41]
  residual activity: 92%
[42]
  residual activity: 100%
[43]
  residual activity: 100%
[44]
  residual activity: 100%
[45]
  residual activity: 100%

## CC(=O)Nc1c(C(C)=O)c(=O)n(C)c2nc(-c3ccc(Cl)cc3Cl)c(-c3ccc(Cl)cc3)cc12 [NAPHTHYRIDINONE]
[1]
  residual activity: 100%
[2]
  residual activity: 100%
[3]
  residual activity: 100%
[4]
  residual activity: 94%
[5]
  residual activity: 100%
[6]
  inhibition: 50%
[7]
  inhibition: 0.711%
[8]
  residual activity: 92%
[9]
  residual activity: 100%
[10]
  residual activity: 89%
[11]
  residual activity: 100%
[12]
  residual activity: 100%
Cannabinoid receptor 2
  IC50: 4.63 µM (not active)
[13]
  inhibition: 43.6%
[14]
  residual activity: 100%
[15]
  residual activity: 100%
[16]
  residual activity: 100%
[17]
  residual activity: 100%
[18]
  inhibition: -3.09%
[19]
  residual activity: 100%
[20]
  residual activity: 100%
[21]
  residual activity: 100%
[22]
  residual activity: 79%
[23]
  residual activity: 100%
[24]
  residual activity: 100%
[25]
  residual activity: 100%
[26]
  inhibition: 5.67%
[27]
  residual activity: 100%
[28]
  residual activity: 100%
[29]
  residual activity: 100%
[30]
  residual activity: 100%
[31]
  residual activity: 92%
[32]
  residual activity: 100%
[33]
  residual activity: 100%
[34]
  residual activity: 100%
[35]
  residual activity: 100%
[36]
  residual activity: 83%
[37]
  residual activity: 100%
[38]
  residual activity: 100%
[39]
  residual activity: 100%
[40]
  residual activity: 100%
[41]
  residual activity: 100%
[42]
  residual activity: 100%
[43]
  residual activity: 100%
[44]
  residual activity: 100%
[45]
  residual activity: 100%
